Experimental findings from patent US20260207585A1, “METHODS AND COMPOSITIONS FOR THE TREATMENT OF PARKINSON'S DISEASE, HUNTINGTON'S DISEASE, AMYOTROPHIC LATERAL SCLEROSIS, AND LEARNING DISORDERS” (Cedars-Sinai Medical Center, priority 2022, published 2026) are described below.

One assay deals with ASH1L (Homo sapiens, UniProt Q9NR48). The assay can be described thus: Methyltransferase inhibition panel: ASH1L. The assay is classed as biochemical. The note with it: control compound; substrate Nucleosomes 0.05 mg/mL. The procedure:
(§1) The ability of ETP69 to inhibit methyltransferases was tested.

A further assay has as its target T1, NSD3 (Homo sapiens, UniProt Q9BZ95).
T1 sequence (Q9BZ95 1-1437): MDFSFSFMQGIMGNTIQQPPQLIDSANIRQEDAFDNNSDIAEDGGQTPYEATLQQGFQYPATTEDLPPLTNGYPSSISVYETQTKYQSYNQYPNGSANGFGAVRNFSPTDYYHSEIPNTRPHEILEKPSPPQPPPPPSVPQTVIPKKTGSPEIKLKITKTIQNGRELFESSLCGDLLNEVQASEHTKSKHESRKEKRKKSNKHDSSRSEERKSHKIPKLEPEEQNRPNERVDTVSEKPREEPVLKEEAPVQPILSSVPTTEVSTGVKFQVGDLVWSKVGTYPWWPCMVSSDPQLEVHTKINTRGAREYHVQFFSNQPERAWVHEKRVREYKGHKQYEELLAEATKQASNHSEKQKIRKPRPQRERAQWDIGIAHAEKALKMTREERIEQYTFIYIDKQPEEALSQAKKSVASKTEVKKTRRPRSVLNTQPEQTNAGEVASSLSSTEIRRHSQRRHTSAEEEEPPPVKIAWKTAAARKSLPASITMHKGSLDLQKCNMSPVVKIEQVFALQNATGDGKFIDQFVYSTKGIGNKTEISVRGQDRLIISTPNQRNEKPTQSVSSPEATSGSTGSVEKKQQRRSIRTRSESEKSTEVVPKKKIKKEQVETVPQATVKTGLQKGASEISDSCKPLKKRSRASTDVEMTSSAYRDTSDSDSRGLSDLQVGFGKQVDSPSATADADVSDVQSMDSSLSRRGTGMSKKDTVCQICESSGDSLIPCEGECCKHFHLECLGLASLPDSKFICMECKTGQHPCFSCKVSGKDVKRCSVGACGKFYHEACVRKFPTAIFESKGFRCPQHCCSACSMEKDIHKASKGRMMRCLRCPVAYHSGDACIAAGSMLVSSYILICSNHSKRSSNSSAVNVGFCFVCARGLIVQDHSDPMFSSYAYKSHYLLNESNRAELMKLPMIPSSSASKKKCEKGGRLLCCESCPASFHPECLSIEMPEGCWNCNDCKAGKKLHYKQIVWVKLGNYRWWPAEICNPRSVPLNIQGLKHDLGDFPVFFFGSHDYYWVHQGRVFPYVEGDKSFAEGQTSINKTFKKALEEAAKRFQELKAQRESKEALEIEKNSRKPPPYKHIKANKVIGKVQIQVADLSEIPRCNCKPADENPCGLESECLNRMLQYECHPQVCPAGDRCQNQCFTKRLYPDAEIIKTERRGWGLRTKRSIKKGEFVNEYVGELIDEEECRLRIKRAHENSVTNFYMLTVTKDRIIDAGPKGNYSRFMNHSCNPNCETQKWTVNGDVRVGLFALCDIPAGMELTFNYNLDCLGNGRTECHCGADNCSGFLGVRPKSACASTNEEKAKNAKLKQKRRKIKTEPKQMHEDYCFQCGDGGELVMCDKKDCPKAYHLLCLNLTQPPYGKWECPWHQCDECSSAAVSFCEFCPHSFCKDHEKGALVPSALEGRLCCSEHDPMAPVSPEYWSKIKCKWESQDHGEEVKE
The assay can be described thus: Methyltransferase inhibition panel: NSD3. It counts as biochemical. The note with it: control compound; substrate Nucleosomes 0.05 mg/mL. The procedure: as §1

In general, IC50 refers to the concentration needed to halve the response being measured. Read a high IC50 as a need for much substance. As to `CN1C(=O)[C@@]23C[C@]4([C@]56C[C@@]78SS[C@@](CO)(C(=O)N7[C@H]5Nc5ccccc56)N(C)C8=O)c5ccccc5N[C@@H]4N2C(=O)[C@]1(CO)SS3` [Chaetocin, reference compound], the results for the IC50 against ASH1L and at NSD3 were 30.8 nM and 85.2 nM, respectively.
